Data reported in publication PMC10060004, “A Self-Immolative Linker for the pH-Responsive Release of Amides” (Molecules, 2023).

How the values were obtained:
[1] = Release experiments (hydrolysis / payload release) in acidic acetate buffer, HPLC; assay type: physicochemical; details: for peak intensity of the conjugate at pH 4.5: pH 4.5, HPLC
Method: (§1) General procedure for release experiments. A 10 mM stock-solution of compounds 8a, 8b, 10, 15, 17, and 18 was prepared in DMSO and diluted in the corresponding buffers to obtain a 1 mM solution. In the case of compound 16, the 10 mM stock-solution was diluted in the corresponding buffer and additionally diluted with DMSO to obtain a final 0.67 mM solution in buffer/H2O/DMSO. For analysis at pH 7.4 and 6, phosphate buffers of 0.1 M were used (KH2PO4/K2HPO4). For pH 5.5 and 4.5, acetate buffer of 0.1 M was used (CH3COONa/CH3COOH). All compounds were mixed with the buffers at 25 °C and further incubated at 37 °C. HPLC analyses were carried out following the method reported in SI every 1–3 h up to 6 h and every 6 h up to 48 h.

[2] = Stability in solution at pH 7.4 (PBS / phosphate buffer), HPLC; assay type: physicochemical; details: for stability in solution at pH 7.4: PBS solution, pH 7.4, 48 h; for pH 7.4, percentage of unmodified compound / pH 7.4, t1/2: pH 7.4 solution; for pH 7.4, percentage of unmodified compound: after 48 h of incubation; for pH 7.4, t1/2: time before half of the drug is degraded
Method: as §1

[3] = Stability in plasma experiments (pooled human plasma, UV/LC-MS); assay type: in vitro ADME; details: for Plasma, percentage of unmodified compound: 37 °C, after 24 h of incubation; for half-life at 100 µM: pooled human plasma, pH 7.4, 37 °C, time before half of the drug is degraded, read-out: Plasma, t1/2
Method: Stability in plasma experiments. Pooled human plasma, purchased from Merck (0.9 mL, […]); hepes buffer (1.0 mL, 25 mM, NaCl 140 mM, pH 7.4); and tested compound dissolved in DMSO (100 µL, 2.0 mM) were mixed in a test tube incubated at 37 °C under continuous mechanical agitation. At set time points (0.0, 0.25, 0.50, 1.0, 3.0, 5.0, 8.0, and 24.0 h), samples of 100 µL were taken, mixed with 400 µL of cold acetonitrile, and centrifuged at 5000 rpm for 15 min. The supernatant was collected and analysed by UV/LC-MS to monitor the amount of unmodified compound. LC analyses of plasma stability tests were performed using Agilent 1100 LC/MSD VL system (G1946C) (Agilent Technologies, Palo Alto, CA, USA) constituting a vacuum solvent degassing unit, a binary high-pressure gradient pump, an 1100 series UV detector, and an 1100 MSD model VL benchtop mass spectrometer. A MSD single-quadrupole instrument was equipped with the orthogonal spray API-ES (Agilent Technologies, Palo Alto, CA, USA). The pressure of the nebulizing gas and the flow of the drying gas (nitrogen used for both) were set at 40 psi and 9 L/min, respectively. The capillary voltage, fragmentation voltage, and vaporization temperature were 3000 V, 10 V, and 350 °C, respectively. MSD was used in the positive and negative ion mode. Spectra were acquired over the scan range m/z 100–2000 using a step size of 0.1. Chromatographic analyses were performed using a Phenomenex Kinetex EVO C18-100Å (150 × 4.6 mm, 5 μm particle size) at room temperature, at a flow rate of 0.6 mL/min, injection volume of 10 μL, operating with a gradient elution of A: water (H2O) and B: acetonitrile (ACN). Both solvents were acidified with 0.1% v/v of formic acid. UV detection was monitored at 254 nm. The analysis started with 0% of B, then B was increased to 80% (from t = 0 to t = 20 min), then kept at 80% (from t = 20 to t = 25 min), and finally returned to 0% of eluent B in 5.0 min.

[4] = Stability test in water; assay type: physicochemical; details: for H2O, percentage of unmodified compound: after 48 h of incubation; for half-life: time before half of the drug is degraded, read-out: H2O, t1/2
Method: as §1

peak intensity of the conjugate at pH 4.5 [1]	stability in solution at pH 7.4 [2]	Plasma, percentage of unmodified compound [3] [%]	half-life at 100 µM [3] [min]	pH 7.4, percentage of unmodified compound [2] [%]	pH 7.4, t1/2 [2] [h]	H2O, percentage of unmodified compound [4] [%]	half-life [4] [min]	drug released at pH 5.5 after 48 h ([1]; pH 5.5, after 48 h)	rate of release at pH 5.5 (qualitative) ([1]; pH 5.5, compared with the other derivatives)	SMILES	free Enzalutamide 9 detected at pH 4.5 ([1]; pH 4.5, 48 h, 37 °C) [%]	amide 9 released at pH 5.5 ([1]; pH 5.5, after 48 h at 37 °C)
decreased	stable	–	–	–	–	–	–	–	–	C#CCOc1cc(COC(=O)N(C[C@@H]2CN(c3ccc(N4CCOCC4)c(F)c3)C(=O)O2)C(C)=O)ccc1OCOCCOC [Compound 8b, {[3-(3-Fluoro-4-morpholinophenyl)-2-oxo-1,3-oxazolidin-5-yl]methyl}acetylamino-{4-[(2-methoxyethoxy)methoxy]-3-(2-propynyloxy)-phenyl}methylformylate]	–	–
decreased	stable	–	–	–	–	–	–	–	–	C#CCOc1cc(COC(=O)N(C[C@H]2CN(c3ccc(N4CCOCC4)c(F)c3)C(=O)O2)C(C)=O)ccc1OCOC [Compound 8a, 4-(Methoxymethoxy)-3-(prop-2-yn-1-yloxy)benzyl (R)-acetyl((3-(3-fluoro-4-morpholino-phenyl)-2-oxooxazolidin-5-yl)methyl)carbamate]	–	–

The remaining lines, values behind:

SMILES	peak intensity of the conjugate at pH 4.5 [1]	stability in solution at pH 7.4 [2]	Plasma, percentage of unmodified compound [3] [%]	half-life at 100 µM [3] [min]	pH 7.4, percentage of unmodified compound [2] [%]	pH 7.4, t1/2 [2] [h]	H2O, percentage of unmodified compound [4] [%]	half-life [4] [min]	drug released at pH 5.5 after 48 h ([1]; pH 5.5, after 48 h)	rate of release at pH 5.5 (qualitative) ([1]; pH 5.5, compared with the other derivatives)	free Enzalutamide 9 detected at pH 4.5 ([1]; pH 4.5, 48 h, 37 °C) [%]	amide 9 released at pH 5.5 ([1]; pH 5.5, after 48 h at 37 °C)
C#CCOc1cc(COC(=O)N(C)C(=O)c2ccc(N3C(=S)N(c4ccc(C#N)c(C(F)(F)F)c4)C(=O)C3(C)C)cc2F)ccc1OCOC [Compound 10, 4-(Methoxymethoxy)-3-(prop-2-yn-1-yloxy)benzyl (4-(3-(4-cyano-3-(trifluoromethyl)-phenyl)-5,5-dimethyl-4-oxo-2-thioxoimidazolidin-1-yl)-2-fluorobenzoyl)(methyl)-carbamate]	decreased	stable	–	–	–	–	–	–	–	–	40	only a small amount
C#CCOc1cc(COC(=O)N(C[C@H]2CN(c3ccc(N4CCOCC4)c(F)c3)C(=O)O2)C(C)=O)cc2c1OC(OCC)O2 (stereo partly drawn) [Compound 15, (2-Ethoxy-7-(prop-2-yn-1-yloxy)benzo[d][1,3]dioxol-5-yl)methyl acetyl(((R)-3-(3-fluoro-4-morpholinophenyl)-2-oxooxazolidin-5-yl)methyl)carbamate]	–	–	95	> 1440	94	> 48	99	> 2880	–	–	–	–
C#CCOc1cc(COC(=O)NS(=O)(=O)c2ccc(C)cc2)cc2c1OC(OCC)O2 (stereo not shown) [Compound 18, (2-Ethoxy-7-(prop-2-yn-1-yloxy)benzo[d][1,3]dioxol-5-yl)methyl tosylcarbamate]	–	–	84	> 1440	92	> 48	99	> 2880	no more than 80%	faster	–	–
C#CCOc1cc(COC(=O)N(C)C(=O)c2ccc(N3C(=S)N(c4ccc(C#N)c(C(F)(F)F)c4)C(=O)C3(C)C)cc2F)cc2c1OC(OCC)O2 (stereo not shown) [Compound 16, (2-Ethoxy-7-(prop-2-yn-1-yloxy)benzo[d][1,3]dioxol-5-yl)methyl (4-(3-(4-cyano-3-(trifluoromethyl)phenyl)-5,5-dimethyl-4-oxo-2-thioxoimidazolidin-1-yl)-2-fluorobenzoyl)(methyl)carbamate]	–	–	89	> 1440	95	> 48	99	> 2880	–	–	–	–
